From ChEMBL document CHEMBL1123115, “Synthesis and antiviral activity of 11-azapentacyclo[6.2.1.0.0.0]decane” (J Med Chem, 1985)

Experiments:
Human alphaherpesvirus 1 = experiment: Effect on herpes simplex virus HSV-1; Ineffective; format: functional, organism-based
Human alphaherpesvirus 2 = experiment: Effect on herpes simplex virus HSV-2; Ineffective; format: functional, organism-based

SMILES: C1C2C3CC4C1C1C2NC3C41 (configuration not stated)
- Activity (Human alphaherpesvirus 1): Ineffective
- Activity (Human alphaherpesvirus 2): Ineffective
